The source of these data is patent publication US12383535B2, “Hydrogen peroxide-responsive KEAP1-NRF2 ppi inhibitor prodrug, and preparation method therefor” (CHINA PHARMACEUTICAL UNIVERSITY, priority 2019, dated 2025).

In data set [1] the test system is RAW264.7 cells. Put plainly: IL-1β, IL-6, TNF-α and NO assays in cell culture supernatant. Type of data set: cell-based, mouse. The conditions noted are these: Mus musculus, RAW264.7, read-out: EC50 for reduction of extracellular NO concentration. The protocol: IL-1β (IL-1β (m) ELISA kit, EK0394, Boster), IL-18 (IL-18 (m) ELISA kit, EMC011, NeoBioscience), IL-6 (IL-6 (m) ELISA kit EK0411, Boster), TNF-α (TNF-α (m) ELISA kit, EK0527, Boster) and NO (nitrate/nitrite assay kit, S0023, Beyotime, China) were tested using commercially available kits according to the manufacturer's instructions.
Then, several inflammatory mediators closely related to ROS, including IL-1β, IL-6, TNF-α and NO, were further evaluated.

Data set [2] deals with Nrf2-ARE in RAW264.7 cells. Put plainly: ARE inductivity under LPS stimulation. Type of data set: cell-based, mouse. The following applies: Mus musculus, RAW264.7, read-out: EC50 of ARE inductivity.
Data set [3] in a line: Parallel artificial membrane permeability assay (PAMPA). Type of data set: in vitro ADME. How it is done:
Potential solubility data were obtained with a pSOL model 3 instrument (pION INC, Cambridge, Massachusetts, USA). Cell membrane permeability was determined on a PAMPA Explorer instrument (pION).
Subsequently, the permeability of cell membranes was measured by standard parallel artificial membrane permeability assay (PAMPA).
A general note: The PAMPA barrier holds no transporters, so it reflects passive diffusion.

The nature of data set [4]: Drug release rate by HPLC (H2O2 activation of prodrug). The format is physicochemical. The following applies: in the presence of H2O2, 12 h, UPLC/HRMS. The protocol:
The target compound was dissolved in DMSO to give a 10 mM stock solution, which was then stored at −20° C. The final concentration was brought to 50 μM by adding the target compound (10 mM) to phosphate buffered saline (PBS) (10 mM, pH 7.4), and H2O2 was added. The solution was well vortexed, and then incubated at 37° C. Samples were taken at appropriate time intervals and analyzed by HPLC directly after injection, and the peak areas were recorded to calculate the percentage of the compound. The procedure was repeated three times. The following Agilent 1260 HPLC and DAD detectors were used: Agilent C18 column (4.6×150 mm, 3.5 μm); mobile phase: 70% methanol; flow rate: 0.5 mL/min. A standard curve of the compound was plotted against concentration.
After treatment with 10 mM H2O2, the prodrug pro2 was activated with prolonged incubation time and the active parent compound 2 was completely released within 3 h (HPLC-determined conversion >98%, (B) of FIG. 1 and (C) of FIG. 1).

As for `COc1ccc(S(=O)(=O)Nc2ccc(N(CC(=O)O)S(=O)(=O)c3ccc(OC)cc3)c3ccccc23)cc1` [Compound 2, N-(4-((4-methoxyphenyl)sulfonamido)naphthalen-1-yl)-N-((4-methoxyphenyl)sulfonyl)glycine], the EC50 is greater than 120 nM in data set [1] and greater than 4520 nM in data set [2]. Moreover, the “Pe at pH 7.4” value in data set [3] is listed as 0.80 10^−6 cm/s. Besides, in data set [3] (pH 7.4, read-out: Pe at pH 7.4), the Papp was 0.8 ×10⁻⁶ cm/s.

Consider `COc1ccc(S(=O)(=O)N(CC(=O)N2CCSC2=O)c2ccc(N(CC(=O)N3CCSC3=O)S(=O)(=O)c3ccc(OC)cc3)c3ccccc23)cc1` [pro1, N,N′-(naphthalene-1,4-diyl)bis(4-methoxy-N-(2-oxo-2-(2-oxothiazolidin-3-yl)ethyl)benzenesulfonamide)], for which the “production of the active parent compound 1” value in data set [4] is “no production of the active parent compound 1 could be observed”.
